# In patent US10442788B2, “Hepatitis B antiviral agents” (ENANTA PHARMACEUTICALS, INC., priority 2015, dated 2019):
# Tests used:
# HBV = test: HepAD38 antiviral assay: reduction of viral product accumulation (virion DNA by qPCR, HBsAg or HBeAg by ELISA); type: cell-based; conditions: Hepatitis B virus, 120 h; HepAD38 cells, five days after compound addition; 50% reduction of viral product accumulation relative to no drug controls; read-out: HepAD38 EC50
# How it was run: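 Tetracycline-washed HepAD38 cells treated with compound (DMSO diluted 1:200) for 5 days, or 8 days with media and compound refreshed on d2 and d5. Virion DNA from lysates quantified by qPCR; HBsAg or HBeAg by ELISA. EC50 is the concentration giving 50% reduction versus no-drug controls, reported as ranges A<1 μM, B 1-10 μM, C>10 μM.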
# [1] = Compound toxicity, ATPLite total ATP levels; type: cell-based; conditions: human, HepAD38 cells; 15,000 cells/well, three days after compound addition; 50% reduction of total ATP levels relative to no drug controls
# How it was run: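 HepAD38 cells, washed free of tetracycline, seeded at 15,000 cells/well and given compound (DMSO stock diluted 1:200) for 3 days. Total ATP read by ATPLite; CC50 is the concentration cutting ATP by 50% versus no-drug controls, reported as ranges A>30 μM, B 10-30 μM, C<10 μM.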
Structure (SMILES),EC50 (HBV),CC50 at 3 days [1]
COC(=O)N1CCN(S(=O)(=O)c2cc(-c3nc(-c4ccc(Br)c(F)c4)c[nH]3)ccc2Cl)CC1 [Example 143],< 1 µM,> 30 µM
CN1CCN(S(=O)(=O)c2cc(-c3nc(-c4ccc(Br)c(F)c4)c[nH]3)ccc2Cl)CC1 [Example 144],< 1 µM,> 30 µM
O=S(=O)(c1cc(-c2nc(-c3ccc(Br)c(F)c3)c[nH]2)ccc1Cl)N1CCN(CCO)CC1 [Example 145],< 1 µM,> 30 µM
CC(C)(C)OC(=O)NCCNS(=O)(=O)c1cc(-c2nc(-c3ccc(Br)c(F)c3)c[nH]2)ccc1Cl [Example 146],< 1 µM,> 30 µM
CCOC(=O)NCCCNS(=O)(=O)c1cc(-c2nc(-c3ccc(Br)c(F)c3)c[nH]2)ccc1Cl [Example 147],< 1 µM,> 30 µM
N#Cc1cc(-c2c[nH]c(-c3ccc(Cl)c(S(=O)(=O)N4CCC(O)CC4)c3)n2)ccc1Cl [Example 148],< 1 µM,> 30 µM
